Activity calls are given as the source filed them.
Assays:
[1] = molecular target: T1, Small ubiquitin-related modifier 1 (Homo sapiens, UniProt P63165); assay: inhibitors of SUMO1 peptide binding, dose response, biochemical, fluorescence polarization, uHTS hits (AID 624382); assay type: functional; conditions: read-out: IC50_Mean
[2] = molecular target: T1, Small ubiquitin-related modifier 1; assay: inhibitors of SUMO1 partner interactions, dose response, biochemical, FRET (AID 624383); assay type: functional; conditions: read-out: IC50_Mean
[3] = molecular target: T2, Long-chain-fatty-acid--AMP ligase FadD28 (Mycobacterium tuberculosis, UniProt P9WQ59); assay: Fluorescence polarization aasay to screen for inhibitors that compete for the binding of FadD28 to a bisubstrate Measured in Biochemical System Using Plate Reader - 2147-01_Inhibitor_Dose_CherryPick_Activity.; assay type: functional, Mycobacterium tuberculosis H37Rv
T2 sequence (P9WQ59 whole entry): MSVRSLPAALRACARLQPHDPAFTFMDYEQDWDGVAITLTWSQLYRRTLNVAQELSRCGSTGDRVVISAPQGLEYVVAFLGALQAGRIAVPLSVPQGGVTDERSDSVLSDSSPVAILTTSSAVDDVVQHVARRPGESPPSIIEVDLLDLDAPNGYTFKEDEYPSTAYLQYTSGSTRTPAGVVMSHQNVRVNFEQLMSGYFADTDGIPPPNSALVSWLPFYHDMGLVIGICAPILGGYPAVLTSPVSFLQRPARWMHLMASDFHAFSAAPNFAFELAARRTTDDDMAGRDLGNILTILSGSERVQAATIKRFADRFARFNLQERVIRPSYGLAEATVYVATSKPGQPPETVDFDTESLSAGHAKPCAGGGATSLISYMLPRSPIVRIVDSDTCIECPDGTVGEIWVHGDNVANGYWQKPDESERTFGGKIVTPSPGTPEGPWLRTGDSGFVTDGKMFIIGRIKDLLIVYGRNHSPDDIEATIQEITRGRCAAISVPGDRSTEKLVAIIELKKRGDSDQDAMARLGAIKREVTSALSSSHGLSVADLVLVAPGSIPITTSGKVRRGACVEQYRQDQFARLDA

fMet-Leu-Phe receptor = molecular target: T3, fMet-Leu-Phe receptor (Homo sapiens, UniProt P21462); assay: FPR ligands, dose response (AID 519); assay type: functional
T3 sequence (P21462 whole entry): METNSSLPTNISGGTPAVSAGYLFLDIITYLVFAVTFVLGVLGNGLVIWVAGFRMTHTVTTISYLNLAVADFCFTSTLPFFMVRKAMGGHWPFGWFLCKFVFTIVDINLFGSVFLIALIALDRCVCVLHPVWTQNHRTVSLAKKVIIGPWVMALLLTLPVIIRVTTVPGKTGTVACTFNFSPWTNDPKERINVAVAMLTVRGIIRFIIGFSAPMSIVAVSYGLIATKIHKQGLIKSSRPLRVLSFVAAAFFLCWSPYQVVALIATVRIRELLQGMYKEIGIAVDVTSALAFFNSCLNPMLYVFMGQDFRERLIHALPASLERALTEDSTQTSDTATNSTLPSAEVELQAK

[4] = molecular target: E3 ubiquitin-protein ligase Mdm2 (Homo sapiens, UniProt Q00987); assay: enhancers of MDM2-luciferase reporter signal, concentration-effect titration, project on inhibitors of MDM2 ubiquitin ligase, cellular assay, luminescent readout, 384-well plate format (AID 1394); assay type: functional;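 further: MDM2 E3 inhibitors raise luminescence so EC50 is for signal enhancement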
cells [5] = assay type: functional, cell-based
cells [6] = assay type: functional, cell-based; remark: listed apart in the source
Paired box protein Pax-8 = Paired box protein Pax-8 (Homo sapiens, UniProt Q06710); assay: inhibitors of PAX8-driven TPO luciferase reporter, dose response, RMG-I cells, cherry-pick (AID 687027); assay type: functional, cell-based;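 further: luciferase reporter driven by Pax8 target thyroperoxidase promoter measured by SteadyGlo luminescence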
[7] = NIH:OVCAR-3 ovarian cancer cell cytotoxicity, dose response, PAX8 inhibitor project, plate reader, dry powder samples (AID 743044); assay type: functional, cell-based
[8] = IGROV1 ovarian cancer cell cytotoxicity, dose response, PAX8 inhibitor project, plate reader, dry powder samples (AID 743043); assay type: functional, cell-based; conditions: IGROV-1
[9] = non-specific cell cytotoxicity, dose response, cytotoxicity control for PAX8 inhibitor project, plate reader, dry powder samples (AID 743021); assay type: functional, cell-based
[10] = cytotoxicity in OVCAR8 ovarian cancer cells, dose response, PAX8 project, cell-based, plate reader, dry powder samples (AID 743197); assay type: functional; conditions: OVCAR-8
[11] = molecular target: Voltage-gated inwardly rectifying potassium channel KCNH2 (Homo sapiens, UniProt Q12809); assay: hERG protection from proarrhythmic block, potency, dose response, cell-based, thallium flux (AID 2121); assay type: ADME
[12] = cytotoxicity in HEK-293T cells, dose response, cytotoxicity control for BCR NF-kB inhibitor project, luminescence, B-cell screen hits (AID 489021); assay type: functional, cell-based;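 further: HEK-293T cells carrying an NF-kB luciferase reporter; cells exposed to compound for about 14 hours before viability readout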
[13] = cytotoxicity in HPDE-C7 cells, cell-based, fluorescence, HTS (AID 430); assay type: functional; conditions: Homo sapiens
[14] = cytotoxicity in KRAS-transformed pancreatic duct cells, primary screen, cell-based, fluorescence, HTS (AID 431); assay type: functional; conditions: Homo sapiens;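 further: cell line used: HPDE-C7K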
[15] = growth suppression of PTEN-null colon cells, dose response, cell-based, HCT116 PTEN knockout (AID 1047); assay type: functional;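 further: HCT116 colon tumor cells with PTEN knocked out; cells exposed to compound for 60 hours before readout; potency for loss of cell viability measured by luminescence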
[16] = growth suppression of beta-catenin-knockout colon cells, dose response, cell-based, HCT116, human colon tumor (AID 1045); assay type: functional;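 further: HCT116 colon tumor cells with beta catenin knocked out; cells exposed to compound for 60 hours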
[17] = Luminescence-based cell-based high throughput dose response assay to identify activators of the DAF-12 from the parasite S. stercoralis (ssDAF-12).; assay type: functional
[18] = molecular target: T4, Oxysterols receptor LXR-beta (Homo sapiens, UniProt P55055); assay: LXR agonists, Gal4 luciferase reporter, dose response, counter-screen for ssDAF-12 agonist project, cell-based, luminescence, HEK293, S. stercoralis campaign (AID 720737); assay type: functional; conditions: read-out: IC50 (the source's name)
T4 sequence (P55055 whole entry): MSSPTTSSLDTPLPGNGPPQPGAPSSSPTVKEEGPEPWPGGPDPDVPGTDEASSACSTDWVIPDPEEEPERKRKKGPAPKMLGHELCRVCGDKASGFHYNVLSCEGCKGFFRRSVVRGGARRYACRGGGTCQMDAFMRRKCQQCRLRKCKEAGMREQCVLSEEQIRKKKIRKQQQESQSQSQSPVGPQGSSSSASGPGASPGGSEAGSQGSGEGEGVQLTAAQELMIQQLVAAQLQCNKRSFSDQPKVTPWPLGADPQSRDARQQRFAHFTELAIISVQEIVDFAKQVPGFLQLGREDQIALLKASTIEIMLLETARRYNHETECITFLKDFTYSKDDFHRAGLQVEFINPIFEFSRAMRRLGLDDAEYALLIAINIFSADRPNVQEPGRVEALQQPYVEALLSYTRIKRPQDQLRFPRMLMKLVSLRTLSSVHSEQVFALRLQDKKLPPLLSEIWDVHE

P388/ADR = assay: cells; assay type: functional; conditions: Mus musculus
SN12K1 = assay: cells; assay type: functional; conditions: Homo sapiens, SN12K1
P388 = assay: cells; assay type: functional; conditions: Mus musculus, P388
[19] = molecular target: Delta-type opioid receptor (Homo sapiens, UniProt P41143); assay: Counterscreen for agonists of heterodimerization of the mu 1 (OPRM1) and delta 1 (OPRD1) opioid receptors: Luminescence-based cell-based high throughput dose response assay to identify agonists of OPRD1 homodimerization. [Related pubchem assays (depositor defined):AID504326, AID504355, AID504692, AID504904, AID504905]; assay type: functional
Mu-type opioid receptor = Mu-type opioid receptor (Homo sapiens, UniProt P35372); assay: Counterscreen for agonists of heterodimerization of the mu 1 (OPRM1) and delta 1 (OPRD1) opioid receptors: Luminescence-based cell-based high throughput dose response assay to identify agonists of OPRM1 homodimerization.; assay type: functional;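 further: U2OS cells expressing OPRM1 and beta-arrestin as split beta-galactosidase partners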
[20] = molecular target: 5-hydroxytryptamine receptor 5A (Homo sapiens, UniProt P47898); assay: Counterscreen for agonists of OPRM1-OPRD1 heterodimerization: luminescence-based cell-based high throughput dose response assay to identify agonists of 5-hydroxytryptamine (serotonin) 5A receptor (HTR5A). [Related pubchem assays (depositor defined):AID504326, AID504355, AID504692, AID504904, AID504905]; assay type: functional
[21] = molecular target: Photoreceptor-specific nuclear receptor (Homo sapiens, UniProt Q9Y5X4); assay type: functional, cell-based;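 further: CHO-S cells with Gal4-NCOR and VP16-NR2E3 two-hybrid luciferase reporter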
[22] = molecular target: T5, Hepatocyte nuclear factor 4-alpha (Homo sapiens, UniProt P41235); assay type: functional, cell-based;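 further: biochemical luminescence-based dose-response counterscreen measuring inhibition of HNF4 dimerization, run alongside a screen for blockers of ABHD5–perilipin-5 interaction; split luciferase complementation of HNF4 fusion proteins in cell lysate measuring dimerization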
T5 sequence (P41235 whole entry): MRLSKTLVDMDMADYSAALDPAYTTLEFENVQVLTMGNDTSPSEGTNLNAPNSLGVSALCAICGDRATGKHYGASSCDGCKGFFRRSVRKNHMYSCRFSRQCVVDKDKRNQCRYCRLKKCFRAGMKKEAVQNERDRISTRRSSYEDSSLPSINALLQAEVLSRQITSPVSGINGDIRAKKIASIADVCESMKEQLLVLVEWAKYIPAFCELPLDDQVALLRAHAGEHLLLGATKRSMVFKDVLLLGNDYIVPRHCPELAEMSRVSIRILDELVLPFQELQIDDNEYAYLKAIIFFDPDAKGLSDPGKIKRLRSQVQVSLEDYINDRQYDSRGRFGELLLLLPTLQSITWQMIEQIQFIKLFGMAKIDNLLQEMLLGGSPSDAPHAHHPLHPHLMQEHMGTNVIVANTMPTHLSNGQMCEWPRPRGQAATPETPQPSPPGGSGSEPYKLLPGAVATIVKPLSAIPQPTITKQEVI

Fatty acid synthase [23] = molecular target: T6, Fatty acid synthase (Homo sapiens, UniProt P49327); assay: FAS thioesterase domain inhibitors, dose response, biochemical, endpoint fluorescence intensity, uHTS hits (AID 624327); assay type: functional;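 further: fluorescence from hydrolysis of an O-methyl fluorescein acyl ester substrate by the enzyme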
Fatty acid synthase [24] = molecular target: T6, Fatty acid synthase; assay: FAS thioesterase domain inhibitors, dose response, biochemical, kinetic fluorescence intensity (AID 624326); assay type: functional;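 further: rate of fluorescence rise from hydrolysis of a fluorogenic O-methyl fluorescein ester substrate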

T1 sequence (P63165 whole entry): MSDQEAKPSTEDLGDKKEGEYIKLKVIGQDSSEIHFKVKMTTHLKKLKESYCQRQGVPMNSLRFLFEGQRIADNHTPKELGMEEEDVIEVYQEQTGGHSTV
Chain of Paired box protein Pax-8 (Q06710 whole entry): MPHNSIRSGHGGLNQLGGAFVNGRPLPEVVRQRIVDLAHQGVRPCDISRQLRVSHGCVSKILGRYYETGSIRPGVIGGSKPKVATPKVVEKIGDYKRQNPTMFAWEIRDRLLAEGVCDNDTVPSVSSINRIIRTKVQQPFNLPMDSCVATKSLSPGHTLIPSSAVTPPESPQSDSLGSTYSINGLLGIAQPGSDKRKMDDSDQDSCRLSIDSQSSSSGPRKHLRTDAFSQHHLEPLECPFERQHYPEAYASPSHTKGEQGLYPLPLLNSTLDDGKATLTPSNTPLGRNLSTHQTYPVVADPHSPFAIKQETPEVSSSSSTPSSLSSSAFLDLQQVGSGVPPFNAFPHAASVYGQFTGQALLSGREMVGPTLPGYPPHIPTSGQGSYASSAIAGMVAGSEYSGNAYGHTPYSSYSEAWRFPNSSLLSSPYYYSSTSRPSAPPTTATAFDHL
T6 sequence (P49327 whole entry, the tested form may be a part): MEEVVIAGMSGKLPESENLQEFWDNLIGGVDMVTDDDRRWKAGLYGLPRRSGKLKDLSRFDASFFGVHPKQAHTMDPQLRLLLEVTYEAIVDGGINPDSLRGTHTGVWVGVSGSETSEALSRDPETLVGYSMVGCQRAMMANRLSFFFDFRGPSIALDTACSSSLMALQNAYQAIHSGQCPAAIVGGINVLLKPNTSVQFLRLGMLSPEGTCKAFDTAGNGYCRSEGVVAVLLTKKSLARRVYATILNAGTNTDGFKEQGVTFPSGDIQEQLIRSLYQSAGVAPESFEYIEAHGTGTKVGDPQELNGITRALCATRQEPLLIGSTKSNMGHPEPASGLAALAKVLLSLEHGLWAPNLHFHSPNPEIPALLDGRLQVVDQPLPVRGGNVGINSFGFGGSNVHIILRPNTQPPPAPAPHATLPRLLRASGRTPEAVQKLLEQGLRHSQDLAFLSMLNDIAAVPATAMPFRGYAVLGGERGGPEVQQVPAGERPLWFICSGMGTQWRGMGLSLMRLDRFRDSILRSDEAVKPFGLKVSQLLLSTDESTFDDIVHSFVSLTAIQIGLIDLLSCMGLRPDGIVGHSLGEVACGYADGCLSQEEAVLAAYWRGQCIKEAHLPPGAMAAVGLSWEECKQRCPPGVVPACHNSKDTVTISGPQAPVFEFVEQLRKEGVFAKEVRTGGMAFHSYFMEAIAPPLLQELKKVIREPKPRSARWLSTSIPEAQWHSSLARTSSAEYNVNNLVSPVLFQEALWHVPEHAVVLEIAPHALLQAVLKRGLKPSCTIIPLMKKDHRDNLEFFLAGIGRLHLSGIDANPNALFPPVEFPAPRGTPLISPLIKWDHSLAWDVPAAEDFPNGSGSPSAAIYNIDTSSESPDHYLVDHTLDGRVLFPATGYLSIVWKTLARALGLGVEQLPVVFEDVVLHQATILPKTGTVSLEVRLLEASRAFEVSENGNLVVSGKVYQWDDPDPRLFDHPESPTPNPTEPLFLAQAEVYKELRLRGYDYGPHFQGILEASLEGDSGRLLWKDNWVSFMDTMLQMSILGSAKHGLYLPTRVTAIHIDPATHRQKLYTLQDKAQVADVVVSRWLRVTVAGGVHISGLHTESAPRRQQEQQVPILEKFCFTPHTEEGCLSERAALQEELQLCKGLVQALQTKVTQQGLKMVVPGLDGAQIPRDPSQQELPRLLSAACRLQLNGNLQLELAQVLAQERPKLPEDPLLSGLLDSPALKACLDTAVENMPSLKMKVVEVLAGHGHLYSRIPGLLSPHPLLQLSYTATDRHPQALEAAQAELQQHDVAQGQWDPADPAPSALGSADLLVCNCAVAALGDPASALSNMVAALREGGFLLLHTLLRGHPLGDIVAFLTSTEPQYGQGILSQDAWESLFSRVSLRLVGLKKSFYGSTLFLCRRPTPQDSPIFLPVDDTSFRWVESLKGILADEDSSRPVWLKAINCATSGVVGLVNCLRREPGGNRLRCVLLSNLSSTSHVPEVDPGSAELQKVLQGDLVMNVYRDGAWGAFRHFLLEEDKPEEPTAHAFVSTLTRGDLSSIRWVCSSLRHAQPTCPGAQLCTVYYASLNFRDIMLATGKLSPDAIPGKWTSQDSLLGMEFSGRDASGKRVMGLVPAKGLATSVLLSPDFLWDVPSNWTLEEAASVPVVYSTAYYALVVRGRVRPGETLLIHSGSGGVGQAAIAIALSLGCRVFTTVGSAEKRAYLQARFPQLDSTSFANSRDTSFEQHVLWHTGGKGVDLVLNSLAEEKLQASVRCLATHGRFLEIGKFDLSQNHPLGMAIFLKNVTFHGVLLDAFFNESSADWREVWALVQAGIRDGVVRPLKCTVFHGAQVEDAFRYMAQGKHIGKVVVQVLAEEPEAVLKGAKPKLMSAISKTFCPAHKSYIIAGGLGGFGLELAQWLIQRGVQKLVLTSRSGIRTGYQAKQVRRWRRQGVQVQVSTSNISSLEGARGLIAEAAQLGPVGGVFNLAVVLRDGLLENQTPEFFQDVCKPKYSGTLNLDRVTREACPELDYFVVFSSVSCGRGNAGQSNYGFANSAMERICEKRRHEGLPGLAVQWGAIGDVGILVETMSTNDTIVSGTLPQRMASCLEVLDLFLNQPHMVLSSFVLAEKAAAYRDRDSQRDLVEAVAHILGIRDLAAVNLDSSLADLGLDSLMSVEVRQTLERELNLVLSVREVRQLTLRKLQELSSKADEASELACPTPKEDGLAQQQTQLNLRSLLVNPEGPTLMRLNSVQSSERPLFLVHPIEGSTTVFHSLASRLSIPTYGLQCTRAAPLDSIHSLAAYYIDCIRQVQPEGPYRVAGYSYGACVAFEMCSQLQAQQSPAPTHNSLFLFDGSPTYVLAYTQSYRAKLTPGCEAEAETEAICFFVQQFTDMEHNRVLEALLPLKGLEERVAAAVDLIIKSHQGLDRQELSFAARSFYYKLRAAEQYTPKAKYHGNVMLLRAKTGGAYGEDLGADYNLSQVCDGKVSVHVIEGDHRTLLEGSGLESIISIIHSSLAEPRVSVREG
Chain of E3 ubiquitin-protein ligase Mdm2 (Q00987 whole entry): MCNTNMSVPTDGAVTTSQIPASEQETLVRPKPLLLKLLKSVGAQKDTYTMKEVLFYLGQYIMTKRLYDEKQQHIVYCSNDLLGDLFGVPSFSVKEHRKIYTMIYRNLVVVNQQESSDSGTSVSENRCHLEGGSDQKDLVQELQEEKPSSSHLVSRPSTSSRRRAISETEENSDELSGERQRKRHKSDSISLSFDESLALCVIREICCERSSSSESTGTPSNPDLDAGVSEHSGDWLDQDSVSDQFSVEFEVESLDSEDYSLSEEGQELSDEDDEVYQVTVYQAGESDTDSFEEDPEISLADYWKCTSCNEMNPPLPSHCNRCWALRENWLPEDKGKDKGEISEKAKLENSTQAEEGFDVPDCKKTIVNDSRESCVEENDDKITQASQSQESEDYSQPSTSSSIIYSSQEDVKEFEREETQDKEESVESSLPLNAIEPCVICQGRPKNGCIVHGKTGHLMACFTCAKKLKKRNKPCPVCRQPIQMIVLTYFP
Chain of Voltage-gated inwardly rectifying potassium channel KCNH2 (Q12809 whole entry): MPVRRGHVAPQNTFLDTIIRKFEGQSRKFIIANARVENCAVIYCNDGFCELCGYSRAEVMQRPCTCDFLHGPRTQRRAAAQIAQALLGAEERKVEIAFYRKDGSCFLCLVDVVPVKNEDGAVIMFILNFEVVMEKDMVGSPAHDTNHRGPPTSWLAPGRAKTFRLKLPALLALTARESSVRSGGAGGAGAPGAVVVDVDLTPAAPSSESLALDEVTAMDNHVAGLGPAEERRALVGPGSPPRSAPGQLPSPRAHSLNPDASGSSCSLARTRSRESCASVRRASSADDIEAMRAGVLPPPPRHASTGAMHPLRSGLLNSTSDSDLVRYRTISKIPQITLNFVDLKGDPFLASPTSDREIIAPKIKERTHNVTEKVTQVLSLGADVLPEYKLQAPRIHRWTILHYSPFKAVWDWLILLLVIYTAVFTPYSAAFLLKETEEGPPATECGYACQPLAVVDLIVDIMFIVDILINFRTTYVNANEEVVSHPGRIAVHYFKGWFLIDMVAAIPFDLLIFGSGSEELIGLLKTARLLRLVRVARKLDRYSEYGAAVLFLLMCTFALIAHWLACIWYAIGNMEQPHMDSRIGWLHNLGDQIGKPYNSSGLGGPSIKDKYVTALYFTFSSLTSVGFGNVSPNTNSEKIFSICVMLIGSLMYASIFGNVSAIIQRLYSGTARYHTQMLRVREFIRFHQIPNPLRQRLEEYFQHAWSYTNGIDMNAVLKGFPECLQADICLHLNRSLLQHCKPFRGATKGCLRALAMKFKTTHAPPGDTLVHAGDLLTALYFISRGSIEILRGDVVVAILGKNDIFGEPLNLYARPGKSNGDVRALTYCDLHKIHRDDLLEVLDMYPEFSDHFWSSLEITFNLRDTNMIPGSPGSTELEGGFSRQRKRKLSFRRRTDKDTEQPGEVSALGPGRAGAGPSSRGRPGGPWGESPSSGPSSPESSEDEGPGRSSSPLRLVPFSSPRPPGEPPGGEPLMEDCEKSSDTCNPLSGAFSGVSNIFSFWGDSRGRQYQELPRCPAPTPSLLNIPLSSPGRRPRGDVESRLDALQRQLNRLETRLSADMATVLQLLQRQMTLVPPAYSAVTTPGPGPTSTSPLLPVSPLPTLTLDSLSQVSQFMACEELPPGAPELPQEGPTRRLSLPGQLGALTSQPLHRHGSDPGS
Chain of Delta-type opioid receptor (P41143 whole entry): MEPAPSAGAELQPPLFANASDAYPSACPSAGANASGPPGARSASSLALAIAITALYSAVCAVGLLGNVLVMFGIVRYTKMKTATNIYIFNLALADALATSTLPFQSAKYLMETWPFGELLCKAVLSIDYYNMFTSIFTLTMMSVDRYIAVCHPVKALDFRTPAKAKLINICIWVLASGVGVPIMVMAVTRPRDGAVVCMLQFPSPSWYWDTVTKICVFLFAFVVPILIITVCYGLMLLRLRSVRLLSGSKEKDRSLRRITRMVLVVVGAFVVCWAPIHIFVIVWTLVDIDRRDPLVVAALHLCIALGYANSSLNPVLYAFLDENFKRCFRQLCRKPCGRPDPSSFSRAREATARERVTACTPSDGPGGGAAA

Compound: O=C(Nc1cccnc1Cl)c1cc(-c2cccc(O)c2)on1
- IC50 [1]: > 66.6 µM (inactive)
- IC50 [2]: 8.84 µM (active)

Compound: CC(=O)N1CCN(Cc2nc3cc(NC(=O)NC4CCCCC4)ccc3n2C)CC1
- AC50 [3]: 81 µM (active)

Compound: C=CCn1c(NC(=O)c2ccccc2)c(C#N)c2nc3ccccc3nc21
- Ki (fMet-Leu-Phe receptor): > 66.7 µM (inactive)

Compound: CCCN(CCC)C(S)=Nc1cc(C(=O)OC)ccc1C(=O)OC
- EC50 [4]: 343 µM (not active)
- EC50 (cells [5]): > 350 µM (not active)
- EC50 (cells [6]): > 350 µM (not active)

Compound: C[C@@H]1CCCCO[C@H](CN(C)C(=O)Nc2cccc3ccccc23)[C@H](C)CN([C@@H](C)CO)C(=O)c2cc(NS(=O)(=O)c3ccc(Cl)cc3)ccc2O1
- AC50 (Paired box protein Pax-8): 5.39 µM (active)
- AC50 [7]: 16.8 µM (active)
- AC50 [8]: 51.8 µM (active)
- AC50 [9]: 55.2 µM (active)
- AC50 [10]: 59.6 µM (active)

Compound: CCOC(=O)Cc1csc(NC(=S)NC(=O)c2ccc(Cl)cc2)n1
- EC50 [11]: 0.55 µM (active)
- IC50 [12]: > 80 µM (inactive)

Compound: CCCOc1ccc(C2C(C(=O)c3ccco3)=C(O)C(=O)N2CCCn2ccnc2)cc1 (stereo not drawn)
- Ki (fMet-Leu-Phe receptor): > 66.7 µM (inactive)

Compound: CC1=CC(C)(C)Nc2ccc(OC(=O)c3ccco3)cc21
- EC50 [13]: 7.05 µM (active)
- EC50 [14]: 6.79 µM (active)
- EC50 [15]: 7.39 µM (active)
- EC50 [16]: 5.59 µM (active)
- IC50 [12]: 44.7 µM (inactive)

Compound: OCCN1CCN(c2nc(-c3ccccc3)nc3c2oc2ccccc23)CC1
- EC50 [13]: 7.2 µM (active)
- EC50 [14]: 10.2 µM (active)

Compound: CC(c1nccs1)N(C)C(=O)CCc1nnc(Cc2c[nH]c3ccccc23)o1 (stereo not drawn)
- IC50 [17]: > 67.5 µM (inactive)
- EC50 [18]: > 67.5 µM (inactive)

Compound: Cc1ccc(CNC(=O)C(Cc2ccccc2)NS(=O)(=O)c2cccs2)cc1 (stereo not drawn)
- AC50 [3]: 58 µM (active)

Compound: COc1ccc(-c2cc(C(F)(F)F)nc(SCC(=O)NCc3cnn(C)c3C)n2)cc1OC
- EC50 [4]: 16.3 µM (not active)

Compound: CCCCCCCC/C=C\CCCCCCCC(=O)O [OLEIC ACID]
- EC50 [11]: 10.4 µM (active)
- GI50 (P388/ADR): 78.9 µM (inactive)
- GI50 (SN12K1): 101 µM (inactive)
- GI50 (P388): 115 µM (inactive)

Compound: CCOC(=O)c1ccc(NC(=O)c2c(N)n(Cc3ccccc3)c(=O)[nH]c2=O)cc1
- IC50 [1]: > 66.6 µM (inactive)
- IC50 [2]: 1.43 µM (active)

Compound: COc1ccc(-c2cn3cccnc3n2)cc1NC(=O)CC(C)C
- Ki (fMet-Leu-Phe receptor): > 66.7 µM (inactive)

Compound: COC(=O)c1sc2nc(-c3ccccc3)nc(N3CCN(C)CC3)c2c1C
- EC50 [13]: > 20 µM (not active)
- EC50 [14]: > 20 µM (not active)

Compound: CSC(=Nc1ccccc1)N=C(SCc1ccccc1)N(C)C
- EC50 [19]: > 92.4 µM (inactive)
- EC50 (Mu-type opioid receptor): > 92.4 µM (inactive)
- EC50 [20]: > 92.4 µM (inactive)
- IC50 [21]: 2.61 µM (active)
- IC50 [22]: 3.95 µM (active)
- IC50 (Fatty acid synthase [23]): 1.37 µM (active)
- IC50 (Fatty acid synthase [24]): 1.04 µM (active)
- AC50 (Paired box protein Pax-8): 4.55 µM (active)

From ChEMBL document CHEMBL1201862, “PubChem BioAssay data set” (2004)
